Results published in patent US10028992B2, “Methods of treating muscular dystrophy” (BOARD OF REGENTS OF THE NEVADA SYSTEM OF HIGHER EDUCATION …, priority 2012, dated 2018).

System: α7 integrin promoter
Experiment: muscle cell-based assay: α7βgal+/− myoblasts/myotubes, LacZ reporter, β-galactosidase cleavage of FDG
Design: species or system mouse
Conditions: Myotubes; for Results in a α7+/− β-galactosidase assay, Myotubes, 0.5 uM: compound at 0.5 uM; for Results in a α7+/− β-galactosidase assay, Myotubes, 1 uM: compound at 1 uM; for Results in a α7+/− β-galactosidase assay, Myotubes, 5 uM: compound at 5 uM; for Results in a α7+/− β-galactosidase assay, Myotubes, 10 uM: compound at 10 uM; for Results in a α7+/− β-galactosidase assay, Myotubes, 20 uM: compound at 20 uM; for Results in a α7+/− β-galactosidase assay, Myotubes, 40 uM: compound at 40 uM
Procedure, shortened: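 Primary α7βgal+/− mouse myoblasts (LacZ knocked into α7 integrin exon 1, promoter retained), differentiated; promoter activity read as β-galactosidase conversion of non-fluorescent FDG to fluorescein. Hits followed by dose-response, western analysis and myostatin counterscreen.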

Compound | Results in a α7+/− β-galactosidase assay, Myotubes, 0.5 uM | Results in a α7+/− β-galactosidase assay, Myotubes, 1 uM | Results in a α7+/− β-galactosidase assay, Myotubes, 5 uM | Results in a α7+/− β-galactosidase assay, Myotubes, 10 uM | Results in a α7+/− β-galactosidase assay, Myotubes, 20 uM | Results in a α7+/− β-galactosidase assay, Myotubes, 40 uM
CCCCN(CC)Cc1ccc(C/N=C(\S)Nc2ccccc2F)o1 [drawing 313] | 0.05863 | 0.01354 | −0.01977 | 0.01526 | −0.2661 | −0.1331
COc1ccc2c(c1)C(=C(C#N)C#N)C(=O)N2CCc1ccccc1 [drawing 314] | 0.006429 | 0.1052 | 0.04228 | −0.09235 | −0.8051 | −0.734
Cn1cc(CN(CCO)Cc2cccs2)c(-c2ccccc2F)n1 [drawing 315] | 0.06985 | 0.09322 | 0.1949 | 0.1433 | −0.3105 | −0.2586
CCN1C(=O)/C(=C(/C#N)c2nc3ccccc3[nH]2)c2ccccc21 [drawing 316] | −0.1345 | −0.06381 | 0.001992 | 0.06976 | −0.2893 | −0.2363
Cc1ccc2c(c1)/C(=C/c1ccc(F)cc1)C(=O)N2 [drawing 317] | 0.09119 | 0.07633 | 0.0903 | −0.07782 | −0.4653 | −0.4823
O=C1Nc2ccccc2/C1=C\c1ccnc2ccccc12 [drawing 318] | 0.1725 | 0.09552 | 0.4005 | 0.4118 | −0.4266 | −0.342
CCc1c(C)sc(NC(=O)c2ccco2)c1C#N [drawing 319] | −0.09933 | −0.00083 | 0.02008 | 0.1359 | −0.1945 | −0.05014
CCc1c(C)sc(NC(=O)c2ccco2)c1C#N [drawing 320] | 0.1503 | 0.1892 | 0.6497 | −0.03138 | −0.1002 | −0.1982
O=C1Nc2ccccc2/C1=C/c1ccccc1Cl [drawing 321] | 0.1248 | 0.1803 | −0.0494 | −0.1957 | −0.4748 | −0.6409
COc1cccc(CN2CCN(Cc3ccco3)CC2)c1.O=C(O)C(=O)O [drawing 322] | 0.1434 | 0.2622 | 0.003264 | −0.05758 | −0.1598 | −0.2345
CC(C)Oc1ccc(C(=O)/C=C2\C(=O)Nc3ccccc32)cc1 [drawing 323] | 0.1381 | 0.1721 | −0.09555 | −0.3062 | −0.7604 | −0.9215
COc1ccc(NC(=O)C2(N(C(=O)Cn3nnnc3N)c3ccc(OC)cc3)CCCCC2)cc1 [drawing 324] | 0.05381 | 0.1378 | 0.2107 | −0.07457 | −0.3633 | −0.2285
COc1ccc(CCNC(=O)Cn2nnc(C(=O)Nc3ccc(Br)cc3)c2N)cc1OC [drawing 325] | 0.151 | −0.08157 | −0.07294 | −0.05869 | −0.4709 | −0.3389
CC1(C)Cc2c(cnn2-c2cccc(F)c2)C(NC(=O)CCc2cnccn2)C1 (stereo not drawn) [drawing 326] | 0.2586 | 0.1834 | −0.03061 | 0.09511 | −0.2257 | −0.2443
O=C1Nc2ccccc2/C1=C/c1cccnc1 [drawing 327] | −0.03985 | 0.1859 | 0.1467 | 0.08556 | −0.2464 | −0.3705
CNC(=O)CSc1nnc(-c2ccc3c(c2)OCO3)n1C [drawing 328] | 0.08818 | −0.1177 | 0.04868 | 0.07527 | −0.1599 | −0.2763
Cc1ccccc1NC(=O)NCCCN1CCN(C)CC1 [drawing 329] | 0.0927 | 0.04605 | −0.02688 | −0.00108 | 0.01494 | −0.02803
CC1(C)Cc2c(c(N3CCOCC3)nc3sc(C(=O)Nc4ccccc4)c(N)c23)CO1 [drawing 330] | 0.2661 | 0.1201 | −0.3453 | −0.3697 | 0.0827 | −0.164
COc1ccc(N2CCN(C(=O)c3cc(C)on3)CC2)cc1 [drawing 331] | 0.1218 | 0.07329 | 0 .416848 | 0.01619 | −0.09449 | −0.06707
CCOn1c(=O)c(-c2ccccc2)[n+]([O-])c2ccccc21 [drawing 332] | 0.2995 | 0.2794 | 0.2514 | 0.005171 | −0.0871 | −0.1572
O=S(=O)(N/C(=N/C1CCCCC1)c1ccccc1F)c1ccccc1 [drawing 334] | 0.1113 | 0.07899 | 0.00127 | 0.03577 | −0.0234 | −0.0349
